Experimental data as given in patent publication US10906878B2, “Kinase inhibitors for the treatment of disease” (Dana-Farber Cancer Institute, Inc., priority 2013, dated 2021).
Where two headings read alike, the source gives them in different places.

What was measured:
[1] = target: EGFR Del/T790M Ba/F3 cells (Homo sapiens, UniProt P00533, T790M, cells depend on it, form not given); experiment: Ba/F3 cell growth inhibition (MTS assay), EGFR Del/T790M; format: cell-based
Text: (§1) The specific cDNAs encoding the oncogenic alterations (EGFR: Del 19, L858R, L718Q, L844V, Del/T790M, L858R/T790M, Del 19/L718Q, Del 19/L844V, Del 19/T790M/L718Q and L858R/T790M/L718Q; FGFR: TEL-FGFR1, TEL-FGFR2, TEL-FGFR1 V561M, TEL-FGFR2 V561M; ALK: EML4-ALK; ROS1: CD74-ROS1) were cloned into the pDNA-Dual (BD Biosciences) vector using standard molecular biology techniques. Mutations were introduced using site-directed mutagenesis (Agilent) with mutant specific primers according to the manufacturer's instructions. All constructs were confirmed by DNA sequencing. The constructs were introduced into Ba/F3 cells using retroviral infection. Polyclonal cell lines were established by puromycin selection and subsequently cultured in the absence of interleukin-3 (IL-3). Uninfected Ba/F3 cells or cell lines expressing green fluorescent protein (GFP) were used as controls.
(§2) Growth and inhibition of growth was assessed by MTS assay. This assay, a colorimetric method for determining the number of viable cells, is based on the bioreduction of 3-(4,5-dimethylthiazol-2-yl)-5-(3-carboxymethoxyphenyl)-2-(4-sulfophenyl)-2H-tetrazolium (MTS) by cells to a formazan product that is soluble in cell culture medium, can be detected spectrophotometrically and was performed according to the manufacturer's recommended conditions. Ba/F3 cells were exposed to treatment for 72 hours and the number of cells used per experiment determined empirically to assure linear growth kinetics over that time period. All experimental points were set up in six to twelve wells and all experiments were repeated at least three times. […] The curves were fitted using a non-linear regression model with a sigmoidal dose response.

[2] = target: EGFR L718Q/L858R Ba/F3 cells (Homo sapiens (Human), UniProt P00533, L718Q/L858R); experiment: Ba/F3 cell growth inhibition (MTS assay), EGFR L858R/L718Q; format: cell-based; conditions: L718Q/L858R
[3] = target: EGFR Del Ba/F3 cells (Homo sapiens, UniProt P00533, cells depend on it, form not given); experiment: Ba/F3 cell growth inhibition (MTS assay), EGFR Del; format: cell-based
Text: as §1, §2

[4] = Microsome Stability Mouse; format: in vitro ADME; conditions: mouse microsomes
[5] = target: EGFR L858R Ba/F3 cells (Homo sapiens (Human), UniProt P00533, L858R); experiment: Ba/F3 cell growth inhibition (MTS assay), EGFR L858R; format: cell-based
Text: as §1, §2

[6] = target: EGFR Wild type vIII Ba/F3 cells (Homo sapiens (Human), UniProt P00533, DELINS30-297G); experiment: Ba/F3 cell growth inhibition (MTS assay), EGFR Wild type vIII; format: cell-based; conditions: Assay 1, read-out: EGFR Ba/F3 cells IC 50 (nM) Assay 1 Wild type vIII
[7] = target: EGFR L858R/T790M Ba/F3 cells (Homo sapiens (Human), UniProt P00533, L858R/T790M); experiment: Ba/F3 cell growth inhibition (MTS assay), EGFR L858R/T790M; format: cell-based
Text: as §1, §2

[8] = target: EGFR L858R/T790M/L718Q Ba/F3 cells (Homo sapiens (Human), UniProt P00533, L718Q/L858R/T790M); experiment: Ba/F3 cell growth inhibition (MTS assay), EGFR L858R/T790M/L718Q; format: cell-based; conditions: Assay 1; T/L/L718Q; read-out: EGFR Ba/F3 cells IC 50 (nM) Assay 1 T/L/L718Q
Text: as §1, §2

[9] = system: KIF5B/Ret_V804M; experiment: Ba/F3 cell growth inhibition (MTS assay), KIF5B/Ret_V804M; format: cell-based
Description: as §2

[10] = target: EGFR Del/T790M/L718Q Ba/F3 cells (Homo sapiens, UniProt P00533, L718Q/T790M, cells depend on it, form not given); format: cell-based
Text: as §1, §2

[11] = target: BTK (Homo sapiens (Human), UniProt Q06187); experiment: BTK kinase assay (LanthaScreen Kinase assay); format: biochemical
Description: BTK kinase assay was conducted using LanthaScreen® Kinase assay.
1. Optimization of kinase concentration required to determine ATP Km,app. The assay was first performed at a high concentration of ATP (1 mM) against a dilution series of kinase in order to determine the amount of kinase required to elicit an approximately 80% change between the minimum and maximum TR-FRET emission ratios (the EC80 value).
2. Determination of ATP Km,app. Using the concentration of enzyme determined in step 1, the assay was then performed against a dilution series of ATP in order to determine the amount of ATP required to elicit a 50% change between the minimum and maximum TR-FRET emission ratios (the EC50 value). This concentration of ATP was referred to as the “apparent” Km value for ATP, or the ATP Km,app.
3. Optimization of kinase concentration required for assay at ATP Km,app. Using the ATP Km,app concentration of ATP determined in step 2, the kinase titration was repeated in order to determine the concentration of kinase required to elicit an approximately 80% change between the minimum and maximum TR-FRET emission ratios at the ATP Km,app concentration of ATP (the EC80 value). This was the concentration of kinase that will be used in an assay to determine an IC50 value for a compound of the invention.
Using the ATP and kinase concentrations determined above, the reaction was then performed in the presence of a dilution series of various compounds of the invention, and the amount of compounds required to elicit a 50% change in TR-FRET ratio (the IC50) was determined. The experiments can be performed over two days, with steps one and two being performed on the first day, and step three and the inhibitor IC50 determination(s) being performed on the second day.

[12] = target: TXK (Homo sapiens (Human), UniProt P42681); experiment: Kinase inhibition TXK; format: biochemical
[13] = target: TEC (Homo sapiens (Human), UniProt P42680); experiment: Kinase inhibition TEC; format: biochemical
[14] = target: BLK (Homo sapiens (Human), UniProt P51451); experiment: Kinase inhibition BLK; format: biochemical
[15] = target: ITK (Homo sapiens (Human), UniProt Q08881); experiment: Kinase inhibition ITK; format: biochemical
Sequence of ITK (Q08881 whole entry): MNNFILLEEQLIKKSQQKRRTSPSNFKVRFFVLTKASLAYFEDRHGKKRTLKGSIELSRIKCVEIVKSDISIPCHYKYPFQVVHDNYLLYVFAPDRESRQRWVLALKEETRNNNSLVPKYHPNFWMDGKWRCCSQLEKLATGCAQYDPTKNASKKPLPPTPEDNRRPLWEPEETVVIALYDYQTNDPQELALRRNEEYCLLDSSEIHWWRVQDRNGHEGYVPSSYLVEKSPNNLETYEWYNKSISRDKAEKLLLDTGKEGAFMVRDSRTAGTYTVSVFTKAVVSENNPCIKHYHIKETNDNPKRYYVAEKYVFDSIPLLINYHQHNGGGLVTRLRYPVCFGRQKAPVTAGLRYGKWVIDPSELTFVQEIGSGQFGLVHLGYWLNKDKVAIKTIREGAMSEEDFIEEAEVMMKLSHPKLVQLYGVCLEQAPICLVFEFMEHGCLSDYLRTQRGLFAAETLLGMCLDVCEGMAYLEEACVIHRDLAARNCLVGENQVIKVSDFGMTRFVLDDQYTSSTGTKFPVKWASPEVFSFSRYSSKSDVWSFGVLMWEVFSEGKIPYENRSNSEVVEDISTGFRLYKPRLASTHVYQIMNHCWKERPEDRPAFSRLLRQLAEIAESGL

Sequence of BTK (Q06187 whole entry): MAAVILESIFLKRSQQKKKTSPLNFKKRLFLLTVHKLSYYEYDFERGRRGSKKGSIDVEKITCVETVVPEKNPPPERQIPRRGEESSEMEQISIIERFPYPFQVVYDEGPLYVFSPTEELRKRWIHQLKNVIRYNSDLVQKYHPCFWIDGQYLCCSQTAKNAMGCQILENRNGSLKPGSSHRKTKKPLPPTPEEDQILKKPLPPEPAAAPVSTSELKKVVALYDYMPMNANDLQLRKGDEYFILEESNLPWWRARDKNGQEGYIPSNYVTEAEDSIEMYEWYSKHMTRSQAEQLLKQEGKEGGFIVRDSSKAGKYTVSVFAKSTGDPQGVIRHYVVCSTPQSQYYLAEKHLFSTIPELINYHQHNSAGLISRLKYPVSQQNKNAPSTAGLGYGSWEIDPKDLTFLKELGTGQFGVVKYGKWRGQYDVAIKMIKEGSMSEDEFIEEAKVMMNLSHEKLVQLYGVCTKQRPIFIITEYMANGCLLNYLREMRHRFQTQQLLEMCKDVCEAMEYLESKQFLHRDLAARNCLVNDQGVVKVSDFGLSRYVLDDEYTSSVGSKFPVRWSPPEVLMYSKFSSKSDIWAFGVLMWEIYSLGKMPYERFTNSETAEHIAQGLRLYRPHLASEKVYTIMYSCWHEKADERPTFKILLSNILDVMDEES
Sequence of BLK (P51451 whole entry): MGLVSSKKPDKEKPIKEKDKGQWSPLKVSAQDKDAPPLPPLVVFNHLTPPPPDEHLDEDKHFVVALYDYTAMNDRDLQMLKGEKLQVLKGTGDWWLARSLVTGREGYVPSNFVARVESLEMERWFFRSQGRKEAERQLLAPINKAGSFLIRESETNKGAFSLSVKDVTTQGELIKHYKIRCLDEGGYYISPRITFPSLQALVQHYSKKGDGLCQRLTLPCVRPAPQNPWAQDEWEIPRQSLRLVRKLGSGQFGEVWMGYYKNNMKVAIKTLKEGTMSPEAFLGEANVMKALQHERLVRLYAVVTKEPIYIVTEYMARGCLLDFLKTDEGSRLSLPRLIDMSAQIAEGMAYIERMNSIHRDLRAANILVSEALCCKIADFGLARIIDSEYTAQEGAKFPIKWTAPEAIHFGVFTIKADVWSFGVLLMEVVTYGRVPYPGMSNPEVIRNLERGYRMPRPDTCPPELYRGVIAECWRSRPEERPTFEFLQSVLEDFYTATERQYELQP
Sequence of TXK (P42681 whole entry): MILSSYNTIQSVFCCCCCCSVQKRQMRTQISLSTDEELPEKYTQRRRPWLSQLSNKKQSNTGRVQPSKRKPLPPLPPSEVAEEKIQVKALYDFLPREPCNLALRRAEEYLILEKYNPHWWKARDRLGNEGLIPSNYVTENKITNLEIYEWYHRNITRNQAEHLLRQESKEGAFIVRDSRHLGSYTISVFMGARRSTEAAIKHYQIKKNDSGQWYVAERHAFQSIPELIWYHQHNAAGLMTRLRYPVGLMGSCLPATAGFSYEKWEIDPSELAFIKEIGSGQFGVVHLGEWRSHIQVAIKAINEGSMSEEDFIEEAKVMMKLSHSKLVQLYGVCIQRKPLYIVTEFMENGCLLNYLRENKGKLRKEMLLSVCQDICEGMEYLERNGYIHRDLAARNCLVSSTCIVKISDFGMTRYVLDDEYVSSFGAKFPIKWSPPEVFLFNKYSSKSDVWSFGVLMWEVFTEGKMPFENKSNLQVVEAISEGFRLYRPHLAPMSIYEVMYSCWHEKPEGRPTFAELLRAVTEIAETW
Sequence of TEC (P42680 whole entry): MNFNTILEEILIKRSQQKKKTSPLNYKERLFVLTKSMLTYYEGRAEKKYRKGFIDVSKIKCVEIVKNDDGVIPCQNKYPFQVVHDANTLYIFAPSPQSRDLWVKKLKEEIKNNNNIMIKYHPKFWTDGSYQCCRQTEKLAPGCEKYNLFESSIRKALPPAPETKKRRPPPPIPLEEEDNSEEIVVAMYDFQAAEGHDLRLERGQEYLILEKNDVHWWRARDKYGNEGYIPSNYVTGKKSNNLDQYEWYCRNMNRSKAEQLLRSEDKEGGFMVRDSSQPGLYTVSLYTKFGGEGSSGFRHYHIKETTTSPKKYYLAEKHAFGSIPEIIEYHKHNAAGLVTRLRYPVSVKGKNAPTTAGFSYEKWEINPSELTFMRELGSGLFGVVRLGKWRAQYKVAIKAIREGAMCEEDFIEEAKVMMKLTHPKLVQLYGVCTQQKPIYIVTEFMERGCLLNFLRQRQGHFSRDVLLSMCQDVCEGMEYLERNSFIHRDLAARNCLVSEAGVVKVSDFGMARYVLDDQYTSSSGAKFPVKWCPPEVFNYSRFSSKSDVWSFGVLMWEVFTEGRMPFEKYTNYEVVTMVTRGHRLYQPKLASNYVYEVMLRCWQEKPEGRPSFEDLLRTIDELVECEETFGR

Q: For `C=CC(=O)Nc1cccc(N(C(=O)Nc2ccccc2)c2cc(Nc3ccc(N4CCN(C)CC4)cc3OC)ncn2)c1` [Compound 1A, N-(3-(1-(6-((2-methoxy-4-(4-methylpiperazin-1-yl)phenyl)amino)pyrimidin-4-yl)-3-phenylureido)phenyl)acrylamide], which “EGFR activity (% Control, 1.0 μM drug) Assay 1 Del/T790M” value ([1]; Assay 1) is on record?
A: The value was 3 % Control.

Q: And the “EGFR activity (% Control, 1.0 μM drug) Assay 2 Del/T790M” value [1]?
A: The value was 1 % Control.

Q: And the IC50 ([1]; Assay 1, Del/T790M, read-out: EGFR Ba/F3 cells IC 50 (nM) Assay 1 Del/T790M)?
A: Its IC50 is 19 nM.

Q: And the IC50 ([2]; Assay 1, read-out: EGFR Ba/F3 cells IC 50 (nM) Assay 1 L718Q/L858R)?
A: The IC50 was 49.8 nM.

Q: What about the IC50 ([2]; Assay 2, read-out: EGFR Ba/F3 cells IC 50 (nM) Assay 2 L718Q/L858R) of the same compound?
A: The IC50 was 149 nM.

Q: And the “EGFR activity (% Control, 1.0 μM drug) Assay 1 Del” value ([3]; Assay 1)?
A: The value was 4 % Control.

Q: And the “EGFR activity (% Control, 1.0 μM drug) Assay 2 Del” value [3]?
A: The value was 0 % Control.

Q: And the IC50 ([3]; Assay 1, Del, read-out: EGFR Ba/F3 cells IC 50 (nM) Assay 1 Del)?
A: Its IC50 is 6.33 nM.

Q: What about the “Microsome Stability Mouse min” value [4] of the same compound?
A: Its value is 14 min.

Q: What about the “EGFR activity (% Control, 1.0 μM drug) Assay 1 L858R” value ([5]; Assay 1) of the same compound?
A: Its value is 2 % Control.

Q: And the “EGFR activity (% Control, 1.0 μM drug) Assay 2 L858R” value [5]?
A: The value was 5 % Control.

Q: What about the IC50 ([5]; Assay 1, L858R, read-out: EGFR Ba/F3 cells IC 50 (nM) Assay 1 L858R) of the same compound?
A: The IC50 was 1.56 nM.

Q: And the IC50 [6]?
A: Its IC50 is 16.4 nM.

Q: What about the IC50 ([7]; Assay 1, L858R/T790M, read-out: EGFR Ba/F3 cells IC 50 (nM) Assay 1 L858R/T790M) of the same compound?
A: Its IC50 is 3.1 nM.

Q: What about the IC50 [8] of the same compound?
A: Its IC50 is 178 nM.

Q: What about the “EGFR activity (% Control, 1.0 μM drug) Assay 1 KIF5B/Ret_V804M” value [9] of the same compound?
A: The value was 65 % Control.

Q: And the “EGFR activity (% Control, 1.0 μM drug) Assay 1 Del/T790M/L718Q” value ([10]; Assay 1)?
A: The value was 63 % Control.

Q: And the “EGFR activity (% Control, 1.0 μM drug) Assay 2 Del/T790M/L718Q” value [10]?
A: Its value is 83 % Control.

Q: What about the “EGFR Ba/F3 cells Assay 1 Del/T/L718Q % inhibition 1.0 uM” value ([10]; Assay 1, Del/T/L718Q, 1.0 uM) of the same compound?
A: The value was 47%.

Q: Which IC50 [11] does the source give for `C=CC(=O)Nc1cccc(N(C(=O)NCc2ccccc2)c2cc(Nc3ccc(N4CCN(C)CC4)cc3)ncn2)c1` [Compound 29A] here?
A: The IC50 was 0.0194 µM.

Q: What about the “EGFR activity (% Control, 100 nM drug) Del/T790M” value ([1]; 100 nM drug, Table G) of the same compound?
A: Its value is 6 % Control.

Q: What about the “EGFR activity (% Control, 100 nM drug) Del” value ([3]; 100 nM drug, Table G) of the same compound?
A: The value was 2 % Control.

Q: What about the “EGFR activity (% Control, 100 nM drug) L858R” value ([5]; 100 nM drug, Table G) of the same compound?
A: Its value is 0 % Control.

Q: What about the “EGFR activity (% Control, 100 nM drug) L858R/T790M” value ([7]; 100 nM drug, Table G) of the same compound?
A: Its value is 13 % Control.

Q: What does the source list for `C=CC(=O)Nc1cccc(N(C(=O)NCc2ccccc2)c2cc(Nc3ccc(N4CCN(C)CC4)cc3OC)ncn2)c1` [Compound 3A, N-(3-(3-benzyl-1-(6-((2-methoxy-4-(4-methylpiperazin-1-yl)phenyl)amino)pyrimidin-4-yl)ureido)phenyl)acrylamide]?
A: Kinase inhibition (% control, 1000 nM compound) TXK [12]: 7.4 % control; EGFR activity (% Control, 1.0 μM drug) Assay 1 Del/T790M ([1]; Assay 1): 1 % Control; EGFR activity (% Control, 1.0 μM drug) Assay 2 Del/T790M [1]: 2 % Control; Kinase inhibition (% control, 1000 nM compound) TEC [13]: 55 % control; Kinase inhibition (% control, 1000 nM compound) BLK [14]: 19 % control; Kinase inhibition (% control, 1000 nM compound) ITK [15]: 100 % control; EGFR activity (% Control, 1.0 μM drug) Assay 1 Del ([3]; Assay 1): 2 % Control; EGFR activity (% Control, 1.0 μM drug) Assay 2 Del [3]: 1 % Control; EGFR activity (% Control, 1.0 μM drug) Assay 1 L858R ([5]; Assay 1): 2 % Control; EGFR activity (% Control, 1.0 μM drug) Assay 2 L858R [5]: 4 % Control; EGFR activity (% Control, 1.0 μM drug) Assay 1 KIF5B/Ret_V804M [9]: 102 % Control; EGFR activity (% Control, 1.0 μM drug) Assay 1 Del/T790M/L718Q ([10]; Assay 1): 53 % Control; EGFR activity (% Control, 1.0 μM drug) Assay 2 Del/T790M/L718Q [10]: 86 % Control

Q: With `CN(C)C/C=C/C(=O)Nc1cccc(N(C(=O)OCc2ccccc2)c2ccnc3[nH]ccc23)c1` [Compound 104A] as the compound, how does the IC50 [11] read?
A: The IC50 was greater than 10 µM.

Q: Which “Kinase inhibition (% control, 1000 nM compound) TXK” value [12] does the source give for `C=CC(=O)Nc1cc(Nc2nccc(N(C)C(=O)Oc3ccccc3)n2)c(OC)cc1N(C)CCN(C)C` [Compound 80A] here?
A: The value was 12 % control.

Q: And the “Kinase inhibition (% control, 1000 nM compound) TEC” value [13]?
A: Its value is 90 % control.

Q: What about the “Kinase inhibition (% control, 1000 nM compound) BLK” value [14] of the same compound?
A: The value was 14 % control.

Q: What about the “Kinase inhibition (% control, 1000 nM compound) ITK” value [15] of the same compound?
A: The value was 94 % control.
